Laboratory results: patent US20120015882A1, “COMPOSITION FOR REGULATING AUTONOMIC NERVOUS ACTIVITY AND METHOD FOR REGULATING AUTONOMIC NERVE” (priority 2009, published 2012)

Columns and labels:
[1] = system: scopolamine-induced amnesia; assay: Scopolamine-induced amnesia, Y-shaped maze test (spontaneous alternation behavior); type: in vivo; conditions: ddY mice, oral 1.5 mg/kg weight to 15 mg/kg weight, 60 minutes before Y-shaped maze; scopolamine 1 mg/kg s.c.
Description: A significance test on the groups was conducted by a Dunnett's multiple comparison test.
Male ddY mice (approximately 7-week old) (n=15) were used, and they took food and water ad lib.
The test substances were administered to the mice once orally 60 minutes before the execution of a Y-shaped maze test for evaluation of spontaneous alternation behavior. Further, 30 minutes before the execution of the Y-shaped maze test, 1 mg/kg weight of scopolamine was subcutaneously administered on the backs, of the mice in order to induce dysmnesia and/or cognitive impairment in the mice. […] The sequence of the arms into which each of the mice entered was recorded. The number of entries into the arms of each mouse during the measurement time was counted to be the total number of entries. […] The percentage of change in spontaneous alternation behavior was calculated by dividing the number of spontaneous alternation behavior by a number obtained by subtracting 2 from the total number of entries and multiplying a resultant number by 100. […] The measured values were expressed in the form of mean±standard error for each group. […]

[2] = system: parasympathetic (vagus) nerve controlling the stomach; assay: Action potential of the parasympathetic (vagus) nerve controlling the stomach (GVNA) after oral administration; type: in vivo, rat; conditions: rats, 5 to 60 minutes after administration, ANOVA
Description: Water or 0.045 mg/kg weight or 0.12 mg/kg weight of Tyr-Pro was administered to rats (n=3), and the action potential of the parasympathetic (vagus) nerve controlling the stomach was measured over time. […] Values for 5 to 60 minutes after the administration were treated as a group, and a significance test with respect to the water-administered control group was conducted by the analysis of variance (ANOVA).
Male Wister rats (approximately […]) (n=3) with a body weight of approximately 300 g were used, and they took food and water ad lib. To examine the activity of the autonomic nerve, after a 3-hour fast, a polyethylene tube for oral administration was inserted into the oral cavity of each rat under urethane anesthesia in the middle of a light period. Thereafter, a sympathetic nerve controlling the adrenal gland, a parasympathetic (vagus) nerve controlling the stomach, or sympathetic nerve in a cutaneous artery of the tail was hooked to a silver electrode, and the electrical activity of the nerve was determined. […] In a period where the activities of these nerves were stabilized, 1 ml of each sample was orally administered through a polyethylene tube, and the changes in activities of these nerves were measured. […]

[3] = system: sympathetic nerve controlling the adrenal gland; assay: Action potential of the sympathetic nerve controlling the adrenal gland (ASNA) after oral administration; type: in vivo, rat; conditions: rats, 0.012 mg/kg weight, 5 to 60 minutes after administration, ANOVA
Description: […] […] Values for 5 to 60 minutes after the administration were treated as a group, and a significance test with respect to the water-administered control group was conducted by the analysis of variance (ANOVA).
Male Wister rats (approximately […]) (n=3) with a body weight of approximately 300 g were used, and they took food and water ad lib. To examine the activity of the autonomic nerve, after a 3-hour fast, a polyethylene tube for oral administration was inserted into the oral cavity of each rat under urethane anesthesia in the middle of a light period. Thereafter, a sympathetic nerve controlling the adrenal gland, a parasympathetic (vagus) nerve controlling the stomach, or sympathetic nerve in a cutaneous artery of the tail was hooked to a silver electrode, and the electrical activity of the nerve was determined. From the start of the operation to the completion of the determination, the tube was kept inserted in the trachea to secure the airway, and the body temperature (rectal temperature of the rat) was kept at 35.0±0.5° C. by using an incubator. In a period where the activities of these nerves were stabilized, 1 ml of each sample was orally administered through a polyethylene tube, and the changes in activities of these nerves were measured. […]

pain = conditions: rat, intraperitoneal; cited from earlier work
[4] = system: time of stay on the open arms; assay: Elevated plus-maze test (anti-anxiety effect); type: in vivo; conditions: ddY mice, oral 0.1 mg/kg weight to 100 mg/kg weight, test 30 minutes after administration
Description: Water, 0.1 mg/kg weight to 100 mg/kg weight of Tyr-Pro, or 10 mg/kg to 1000 mg/kg weight of a casein hydrolysate was administered to mice (n=12), and the time for which the mice stayed on open arms was measured (Example 4). […] The data were expressed in the form of mean±standard error. A significance test with respect to the water-administered control group was conducted by an unpaired Student's t test, and *, **, and *** indicate that P<0.05, P<0.01, and P<0.001, respectively.
Male ddY mice (approximately 6-week old) (n=12) were used. After preliminary feeding, Tyr-Pro (0.1 mg/kg weight, 1.0 mg/kg weight, 10 mg/kg weight, 30 mg/kg weight, or 100 mg/kg weight) or a casein hydrolysate (10 mg/kg weight, 100 mg/kg weight, or 1000 mg/kg weight) was administered once orally. The anti-anxiety effect was examined by an elevated plus-maze test 30 minutes after the administration. The casein hydrolysate was the same as that in Example 1. […] The behaviors thereof were observed, and the accumulative time of stay on the open arms was measured. From the measured value, the percentage of the accumulative time of stay on the open arms in a 5-minute test was found, and used as an index of the anti-anxiety effect. […] The measured values were expressed in the form of mean±standard error for each group and a comparison with the control group was conducted by using an unpaired Student's t test.

opioid receptors = conditions: cited from earlier work
[5] = system: sympathetic nerve in a cutaneous artery of the tail; assay: Action potential of the sympathetic nerve in the cutaneous artery of the tail (CASNA) after oral administration; type: in vivo, rat; conditions: rats, 0.12 mg/kg weight, 5 to 60 minutes after administration
Description: Water, 0.12 mg/kg weight of Tyr-Pro, or 4.2 mg/kg weight of a casein hydrolysate was administered to rats (n=3), and the action potential of the sympathetic nerve in the cutaneous artery of the tail was measured over time. […] Values for 5 to 60 minutes after the administration were treated as a group, and a significance test with respect to the water-administered control group was conducted by the analysis of variance (ANOVA).
Male Wister rats (approximately 0-week old) (n=3) with a body weight of approximately 300 g were used, and they took food and water ad lib. To examine the activity of the autonomic nerve, after a 3-hour fast, a polyethylene tube for oral administration was inserted into the oral cavity of each rat under urethane anesthesia in the middle of a light period. Thereafter, a sympathetic nerve controlling the adrenal gland, a parasympathetic (vagus) nerve controlling the stomach, or sympathetic nerve in a cutaneous artery of the tail was hooked to a silver electrode, and the electrical activity of the nerve was determined. […] In a period where the activities of these nerves were stabilized, 1 ml of each sample was orally administered through a polyethylene tube, and the changes in activities of these nerves were measured. […]

blood pressure = conditions: orally administered; cited from earlier work
[6] = system: gastric emptying function; assay: Gastric emptying function test (phenol red dye discharge); type: in vivo, rat; conditions: SD rats, oral 0.1 mg/kg weight, dye 30 minutes later, stomach extirpated 20 minutes after dye; mean±standard error; control 78.8±2.41%
Description: Water or 0.1 mg/kg weight of Tyr-Pro was administered to rats (n=10), and 30 minutes later a dye (phenol red) was administered. After additional 20 minutes, each stomach was extirpated, and the dye remaining in the stomach was determined. A significance test with respect to the water-administered control group was conducted by an unpaired Student's t test.
Male Sprague-Dawley (SD) rats (6-week old) (n=10) were used, and they took food and water ad lib. After preliminary feeding for one week or longer, the rats were subjected to the experiment. Prior to the test, all the rats were fasted in a fasting cage for 24 hours. During the period, the rats took water ad lib. In the test, a solvent (distilled water for injection) and 0.1 mg/kg weight of Tyr-Pro were orally administered to the rats, and, 30 minutes later, a 0.05% dye (phenol red) solution (containing 1.5% of carboxylmethyl cellulose) was orally administered at a volume of 1.5 ml/rat. Each stomach was extirpated under ether anesthesia 20 minutes after the administration of the dye without delay. […] The supernatant was centrifuged, and then measured for absorbance at 560 nm. The gastric emptying function (GE: gastric emptying) was calculated in accordance with the following formula.
GE(%)=(1−absorbance of solution recovered from stomachs of test-substance-administered group/absorbance at gastric emptying of 0%)×100 […]

autonomic nerve = conditions: intravenous administration; cited from earlier work

| Compound | effect of preventing amnesia [1] | parasympathetic nervous activity in the stomach in comparison with the water-administered group ([2]; 0.045 mg/kg weight) | parasympathetic nervous activity in the stomach in comparison with the water-administered group ([2]; 0.12 mg/kg weight) | sympathetic nervous activity in the adrenal gland in comparison with the water-administered group [3] | analgesic effect (pain) | anti-anxiety effect [4] | binding capability to opioid receptors (opioid receptors) | sympathetic nervous activity in the cutaneous artery in comparison with the water-administered group [5] | effect of lowering the blood pressure (blood pressure) | dye discharge percentage (gastric emptying, GE) [6] [%] | effect of controlling the autonomic nerve (autonomic nerve) |
| --- | --- | --- | --- | --- | --- | --- | --- | --- | --- | --- | --- |
| Tyr-Pro | an effect of preventing amnesia | significantly increased | significantly increased | significantly decreased | exhibit an analgesic effect | exhibited an anti-anxiety effect | lacks binding capability to opioid receptors | a tendency was observed that the sympathetic nervous activity in the cutaneous artery was lowered | effect of lowering the blood pressure | 85.4±2.01 |  |
| NCCC(=O)N[C@@H](Cc1cnc[nH]1)C(=O)O [carnosine] |  |  |  |  |  |  |  |  |  |  | an effect of controlling the autonomic nerve |
